Values of other authors in PubChem BioAssay AID1259409 (Chemical Carcinogenesis Research Information System (CCRIS), 2018).

Test system: rodent chemically induced tumor inhibition, incidence and multiplicity
Experiment: CCRIS tumor inhibitor studies

## CC(=O)Oc1ccccc1C(=O)O
Carcinogen: 1,2-DIMETHYLHYDRAZINE DIHYDROCHLORIDE, 306-37-6, Dose [Inhibitor]: 0, 10 MG/KG/D IN 0.2 ML OF 5% SODIUM BICARBONATE FOR 1 WK PRIOR +0 AND 1 WK POST CARCINOGEN DOSE (STUDY DURATION: 36 WK), Route [Inhibitor]: SUBCUTANEOUS, Species: RAT, Strain/Sex: SPRAGUE-DAWLEY/MALE, Target Tissue: Type of Lesion: COLON: ADENOCARCINOMA, Dose [Carcinogen]: 30 MG/KG ONCE, Promoter: NONE USED
  tumour outcome (control, treated, inhibition, significance): 50%, 17%, 66%, p<0.05
Carcinogen: 1,2-DIMETHYLHYDRAZINE DIHYDROCHLORIDE, 306-37-6, Dose [Inhibitor]: 0, 50 MG/KG/D IN 0.6 ML OF 5% SODIUM BICARBONATE BEGINNING 4 WK POST CARCINOGEN DOSE AND CONTINUING FOR DURATION OF STUD, Route [Inhibitor]: SUBCUTANEOUS, Species: RAT, Strain/Sex: SPRAGUE-DAWLEY/MALE, Target Tissue: Type of Lesion: COLON: ADENOCARCINOMA, Dose [Carcinogen]: 30 MG/KG ONCE, Promoter: NONE USED
  tumour outcome (control, treated, inhibition, significance): 42%, 42%, 0%, not significant
Carcinogen: 2-AMINO-1-METHYL-6-PHENYLIMIDAZO[4,5-B]PYRIDINE [105650-23-5], Dose [Inhibitor]: 400 PPM IN DIET FOR 4 WK BEGINNING WK PRIOR TO FIRST CARCINOGEN DOSE (STUDY DURATION: 25 WK), Route [Inhibitor]: ORAL, Species: RAT, Strain/Sex: SPRAGUE-DAWLEY/FEMALE, Target Tissue: Type of Lesion: MAMMARY GLAND: FIBROADENOMA OR DUCTAL CARCINOMA, Dose [Carcinogen]: 85 MG/KG BW 2X/WK FOR 4 WK (STUDY DURATION: 25 WK), Promoter: NONE
  tumour outcome (control, treated, inhibition, significance): 67.7%, 50.0%, 26%, not significant
Carcinogen: 2-AMINO-1-METHYL-6-PHENYLIMIDAZO[4,5-B]PYRIDINE, 105650-23-5, Dose [Inhibitor]: 0, 400 PPM IN HIGH FAT DIET FOR 4 WK BEGINNING 1 WK PRIOR TO CARCINOGEN TREATMENT (STUDY DURATION: 25 WK), Route [Inhibitor]: ORAL, Species: RAT, Strain/Sex: SPRAGUE-DAWLEY/FEMALE, Target Tissue: Type of Lesion: MAMMARY GLAND: CARCINOMA, Dose [Carcinogen]: 85 MG/KG BW IN CORN OIL 8 TIMES IN 10 D, Promoter: NONE USED
  tumour outcome (control, treated, inhibition, significance): 21/31 (68%), 14/30 (47%), 31%, not significant
Carcinogen: 2-AMINO-1-METHYL-6-PHENYLIMIDAZO[4,5-B]PYRIDINE, 105650-23-5, Dose [Inhibitor]: 0, 400 PPM IN HIGH FAT DIET FOR 4 WK BEGINNING 1 WK PRIOR TO CARCINOGEN TREATMENT (STUDY DURATION: 25 WK), Route [Inhibitor]: ORAL, Species: RAT, Strain/Sex: SPRAGUE-DAWLEY/FEMALE, Target Tissue: Type of Lesion: MAMMARY GLAND: FIBROADENOMA, Dose [Carcinogen]: 85 MG/KG BW IN CORN OIL 8 TIMES IN 10 D, Promoter: NONE USED
  tumour outcome (control, treated, inhibition, significance): 3/31 (10%), 2/30 (7%), 30%, not significant
Carcinogen: 4-(METHYLNITROSAMINO)-1-(3-PYRIDYL)-1-BUTANONE, 64091-91-4, Dose [Inhibitor]: 0, 32 MG/KG BW BUFFERED ASPIRIN IN DIET FOR DURATION OF STUDY BEGINNING 2 WK PRIOR TO CARCINOGEN TREATMENT (STUDY DURATI, Route [Inhibitor]: ORAL, Species: MOUSE, Strain/Sex: STRAIN-A/FEMALE, Target Tissue: Type of Lesion: LUNG: TUMOR, Dose [Carcinogen]: 9.1 MG/MOUSE (TOTAL DOSE) ADMINISTERED IN DRINKING WATER OVER 7 WK, Promoter: NONE USED
  tumour outcome (control, treated, inhibition, significance): 23/24 (96%), 15/15 (100%), -4%, not significant
Carcinogen: 4-(METHYLNITROSAMINO)-1-(3-PYRIDYL)-1-BUTANONE, 64091-91-4, Dose [Inhibitor]: 0, 32 MG/KG BW NON-BUFFERED ASPIRIN IN DIET FOR DURATION OF STUDY BEGINNING 2 WK PRIOR TO CARCINOGEN TREATMENT (STUDY DU, Route [Inhibitor]: ORAL, Species: MOUSE, Strain/Sex: STRAIN-A/FEMALE, Target Tissue: Type of Lesion: LUNG: TUMOR, Dose [Carcinogen]: 9.1 MG/MOUSE (TOTAL DOSE) ADMINISTERED IN DRINKING WATER OVER 7 WK, Promoter: NONE USED
  tumour outcome (control, treated, inhibition, significance): 23/24 (96%), 14/14 (100%), -4%, not significant
Carcinogen: 4-(METHYLNITROSAMINO)-1-(3-PYRIDYL)-1-BUTANONE, 64091-91-4, Dose [Inhibitor]: 0, 35 MG/KG BW IN DIET FOR DURATION OF STUDY BEGINNING 2 WK PRIOR TO CARCINOGEN TREATMENT (STUDY DURATION: 25 WK), Route [Inhibitor]: ORAL, Species: MOUSE, Strain/Sex: STRAIN-A/FEMALE, Target Tissue: Type of Lesion: LUNG: TUMOR, Dose [Carcinogen]: 9.1 MG/MOUSE (TOTAL DOSE) ADMINISTERED IN DRINKING WATER OVER 7 WK, Promoter: NONE USED
  tumour outcome (control, treated, inhibition, significance): 23/24 (96%), 14/15 (93%), 3%, not significant
Carcinogen: 4-(METHYLNITROSAMINO)-1-(3-PYRIDYL)-1-BUTANONE, 64091-91-4, Dose [Inhibitor]: 0, 73 MMOL/KG BW/D IN DIET FOR DURATION OF STUDY BEGINNING 2 WK PRIOR TO CARCINOGEN TREATMENT (STUDY DURATION: 25 WK), Route [Inhibitor]: ORAL, Species: MOUSE, Strain/Sex: STRAIN-A/FEMALE, Target Tissue: Type of Lesion: LUNG: TUMOR, Dose [Carcinogen]: 2.2 MMOL/KG BW (TOTAL DOSE) ADMINISTERED IN DRINKING WATER FOR 7 WK, Promoter: NONE USED
  tumour outcome (control, treated, inhibition, significance): 29/29 (100%), 25/25 (100%), 0%, not significant
Carcinogen: 4-(METHYLNITROSAMINO)-1-(3-PYRIDYL)-1-BUTANONE, 64091-91-4, Dose [Inhibitor]: 0, 147 MMOL/KG BW/D IN DIETS FOR DURATION OF STUDY BEGINNING 2 WK PRIOR TO CARCINOGEN TREATMENT (STUDY DURATION: 25 WK), Route [Inhibitor]: ORAL, Species: MOUSE, Strain/Sex: STRAIN-A/FEMALE, Target Tissue: Type of Lesion: LUNG:TUMOR, Dose [Carcinogen]: 2.2 MMOL/KG BW (TOTAL DOSE) ADMINISTERED IN DRINKING WATER FOR 7 WK, Promoter: NONE USED
  tumour outcome (control, treated, inhibition, significance): 29/29 (100%), 24/24 (100%), 0%, not significant
Carcinogen: 4-(METHYLNITROSAMINO)-1-(3-PYRIDYL)-1-BUTANONE, 64091-91-4, Dose [Inhibitor]: 0, 294 MG/KG DIET FOR DURATION OF STUDY BEGINNING 2 WK PRIOR TO CARCINOGEN TREATMENT (STUDY DURATION: 25 WK), Route [Inhibitor]: ORAL, Species: MOUSE, Strain/Sex: STRAIN-A/FEMALE, Target Tissue: Type of Lesion: LUNG: TUMOR, Dose [Carcinogen]: 9.1 MG/MOUSE IN DRINKING WATER FOR 7 WK, Promoter: NONE USED
  tumour outcome (control, treated, inhibition, significance): 29/29 (100%), 24/24 (100%), 0%, not significant
Carcinogen: 4-(METHYLNITROSAMINO)-1-(3-PYRIDYL)-1-BUTANONE, 64091-91-4, Dose [Inhibitor]: 0, 294 MMOL/KG BW/D IN DIET FOR DURATION OF STUDY BEGINNING 2 WK PRIOR TO CARCINOGEN TREATMENT (STUDY DURATION: 25 WK), Route [Inhibitor]: ORAL, Species: MOUSE, Strain/Sex: STRAIN-A/FEMALE, Target Tissue: Type of Lesion: LUNG: TUMOR, Dose [Carcinogen]: 2.2 MMOL/KG BW (TOTAL DOSE) ADMINISTERED IN DRINKING WATER FOR 7 WK, Promoter: NONE USED
  tumour outcome (control, treated, inhibition, significance): 29/29 (100%), 24/24 (100%), 0%, not significant
Carcinogen: 4-(METHYLNITROSAMINO)-1-(3-PYRIDYL)-1-BUTANONE, 64091-91-4, Dose [Inhibitor]: 0, 588 MMOL/KG BW/D IN DIET FOR DURATION OF STUDY BEGINNING 2 WK PRIOR TO CARCINOGEN TREATMENT (STUDY DURATION: 25 WK), Route [Inhibitor]: ORAL, Species: MOUSE, Strain/Sex: STRAIN-A/FEMALE, Target Tissue: Type of Lesion: LUNG: TUMOR, Dose [Carcinogen]: 2.2 MMOL/KG BW (TOTAL DOSE) ADMINISTERED IN DRINKING WATER FOR 7 WK, Promoter: NONE USED
  tumour outcome (control, treated, inhibition, significance): 29/29 (100%), 24/24 (100%), 0%, not significant
Carcinogen: 7,12-DIMETHYLBENZ[A]ANTHRACENE, 57-97-6, Dose [Inhibitor]: 0.6% NEUTRALIZED WITH 12 MG SODIUM CARBONATE DAILY (STUDY DURATION: 14 WK), Route [Inhibitor]: ORAL, Species: HAMSTER, Strain/Sex: SYRIAN/FEMALE, MALE, Target Tissue: Type of Lesion: BUCCAL CELLS: EPIDERMOID TUMORS, Dose [Carcinogen]: 0.5% SOLUTION IN MINERAL OIL 3/WK FOR UP TO 14 WK, Promoter: NONE USED
  tumour outcome (control, treated, inhibition, significance): 6.4%, 4.8%, 25%, p<0.1
Carcinogen: AZOXYMETHANE, 25843-45-2, Dose [Inhibitor]: 0, 200 PPM IN DIET BEGINNING 2 WK PRIOR TO CARCINOGEN TREATMENT AND CONTINUING FOR 52 WK (STUDY DURATION: 54 WK), Route [Inhibitor]: ORAL, Species: RAT, Strain/Sex: F344/MALE, Target Tissue: Type of Lesion: COLON: ADENOCARCINOMA, Dose [Carcinogen]: 15 MG/KG BW 1/WK FOR 2 WK, Promoter: NONE USED
  tumour outcome (control, treated, inhibition, significance): 78%, 53%, 32%, p<0.05
Carcinogen: AZOXYMETHANE, 25843-45-2, Dose [Inhibitor]: 0, 250 PPM IN DIET FOR 13 WK BEGINNING 36 WK POST LAST CARCINOGEN DOSE (STUDY DURATION: 49 WK), Route [Inhibitor]: ORAL, Species: RAT, Strain/Sex: F344/MALE, Target Tissue: Type of Lesion: COLON: ADENOMA, Dose [Carcinogen]: 12 MG/KG BW IN 0.9% SALINE TWICE, Promoter: CHOLIC ACID, 81-25-4
  tumour outcome (control, treated, inhibition, significance): 81%, 94%, -16%, not significant
Carcinogen: AZOXYMETHANE, 25843-45-2, Dose [Inhibitor]: 0, 250 PPM IN DIET FOR 13 WK BEGINNING 36 WK POST LAST CARCINOGEN DOSE (STUDY DURATION: 49 WK), Route [Inhibitor]: ORAL, Species: RAT, Strain/Sex: F344/MALE, Target Tissue: Type of Lesion: SMALL INTESTINE: ADENOCARCINOMA, Dose [Carcinogen]: 12 MG/KG BW IN 0.9% SALINE TWICE, Promoter: CHOLIC ACID, 81-25-4
  tumour outcome (control, treated, inhibition, significance): 23%, 19%, 17%, not significant
Carcinogen: AZOXYMETHANE, 25843-45-2, Dose [Inhibitor]: 0, 250 PPM IN DIET FOR 13 WK BEGINNING 36 WK POST LAST CARCINOGEN DOSE (STUDY DURATION: 49 WK), Route [Inhibitor]: ORAL, Species: RAT, Strain/Sex: F344/MALE, Target Tissue: Type of Lesion: SMALL INTESTINE: ADENOMA, Dose [Carcinogen]: 12 MG/KG BW IN 0.9% SALINE TWICE, Promoter: CHOLIC ACID, 81-25-4
  tumour outcome (control, treated, inhibition, significance): 17%, 47%, -176%, p<0.05
